{"source": "patent US20060080073A1", "about": "“Three-dimensional structural activity correlation method” (priority 2002, published 2006)", "origin": "cited, not measured here"}
{"target": "T1, human corticosteroid-binding globulin (Homo sapiens, UniProt P08185)", "T1 sequence (P08185 23-405)": "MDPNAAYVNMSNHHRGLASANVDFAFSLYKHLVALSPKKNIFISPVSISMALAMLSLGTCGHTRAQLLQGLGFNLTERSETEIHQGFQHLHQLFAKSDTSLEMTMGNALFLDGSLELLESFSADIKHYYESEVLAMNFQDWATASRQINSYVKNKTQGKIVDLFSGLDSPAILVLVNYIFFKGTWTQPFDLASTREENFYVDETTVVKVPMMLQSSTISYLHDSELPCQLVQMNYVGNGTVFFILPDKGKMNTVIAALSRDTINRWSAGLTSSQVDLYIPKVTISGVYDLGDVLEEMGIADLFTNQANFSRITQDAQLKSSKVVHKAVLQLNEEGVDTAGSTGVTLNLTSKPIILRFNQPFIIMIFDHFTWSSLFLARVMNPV", "details": "steroid derivatives disclosed by Cramer et al. (CoMFA benchmark); values given as negative logarithmic numbers, no unit"}
{"smiles": "C[C@]12CCC(=O)C=C1CC[C@@H]1[C@@H]2[C@@H](O)C[C@]2(C=O)[C@@H](C(=O)CO)CC[C@@H]12", "note": "[aldosterone]", "Binding affinity to human corticosteroid-binding globulins (CBG)": "−6.279"}
{"smiles": "C[C@]12CCC(O)CC1CC[C@@H]1[C@@H]2CC[C@]2(C)C(O)CC[C@@H]12", "note": "(stereo partly drawn) [androstandiol]", "Binding affinity to human corticosteroid-binding globulins (CBG)": "−5.000"}
{"smiles": "C[C@]12CCC(=O)C=C1CC[C@@H]1[C@@H]2CC[C@]2(C)C(=O)CC[C@@H]12", "note": "[androstenedione]", "Binding affinity to human corticosteroid-binding globulins (CBG)": "−5.763"}
{"smiles": "C[C@]12CC[C@@H](O)C[C@@H]1CC[C@@H]1[C@@H]2CC[C@]2(C)C(=O)CC[C@@H]12", "note": "[androsterone]", "Binding affinity to human corticosteroid-binding globulins (CBG)": "−5.613"}
{"smiles": "C[C@]12C[C@H](O)[C@H]3[C@@H](CCC4=CC(=O)CC[C@@]43C)[C@@H]1CC[C@@H]2C(=O)CO", "note": "[corticosterone]", "Binding affinity to human corticosteroid-binding globulins (CBG)": "−7.881"}
{"smiles": "C[C@]12CCC(=O)C=C1CC[C@@H]1[C@@H]2[C@@H](O)C[C@@]2(C)[C@H]1CC[C@]2(O)C(=O)CO", "note": "[cortisol]", "Binding affinity to human corticosteroid-binding globulins (CBG)": "−7.881"}
{"smiles": "C[C@]12CCC(=O)C=C1CC[C@@H]1[C@@H]2C(=O)C[C@@]2(C)[C@H]1CC[C@]2(O)C(=O)CO", "note": "[cortisone]", "Binding affinity to human corticosteroid-binding globulins (CBG)": "−6.892"}
{"smiles": "C[C@]12CC[C@H](O)CC1=CC[C@@H]1[C@@H]2CC[C@]2(C)C(=O)CC[C@@H]12", "note": "[dehydroepiandrosterone]", "Binding affinity to human corticosteroid-binding globulins (CBG)": "−5.000"}
{"smiles": "C[C@]12CC[C@H]3[C@@H](CCC4=CC(=O)CC[C@@]43C)[C@@H]1CC[C@@H]2C(=O)CO", "note": "[deoxycorticosterone]", "Binding affinity to human corticosteroid-binding globulins (CBG)": "−7.653"}
{"smiles": "C[C@]12CCC(=O)C=C1CC[C@@H]1[C@@H]2CC[C@@]2(C)[C@H]1CC[C@]2(O)C(=O)CO", "note": "[deoxycortisole]", "Binding affinity to human corticosteroid-binding globulins (CBG)": "−7.881"}
{"smiles": "C[C@]12CCC(=O)C[C@@H]1CC[C@@H]1[C@@H]2CC[C@]2(C)[C@@H](O)CC[C@@H]12", "note": "[dihydrotestosterone]", "Binding affinity to human corticosteroid-binding globulins (CBG)": "−5.919"}
{"smiles": "C[C@]12CC[C@@H]3c4ccc(O)cc4CC[C@H]3[C@@H]1C[C@@H](O)[C@@H]2O", "note": "[estriol]", "Binding affinity to human corticosteroid-binding globulins (CBG)": "−5.000"}
{"smiles": "C[C@]12CC[C@@H](O)C[C@H]1CC[C@@H]1[C@@H]2CC[C@]2(C)C(=O)CC[C@@H]12", "note": "[etiocholanolone]", "Binding affinity to human corticosteroid-binding globulins (CBG)": "−5.255"}
{"smiles": "CC(=O)[C@@]1(O)CC[C@H]2[C@@H]3CC[C@@H]4C[C@H](O)CC[C@]4(C)[C@H]3CC[C@@]21C", "note": "[hydroxy pregnenolone]", "Binding affinity to human corticosteroid-binding globulins (CBG)": "−5.000"}
{"smiles": "CC(=O)[C@@]1(O)CC[C@H]2[C@@H]3CCC4=CC(=O)CC[C@]4(C)[C@H]3CC[C@@]21C", "note": "[hydroxy progesterone]", "Binding affinity to human corticosteroid-binding globulins (CBG)": "−7.740"}
{"smiles": "CC(=O)[C@H]1CC[C@H]2[C@@H]3CC=C4C[C@@H](O)CC[C@]4(C)[C@H]3CC[C@]12C", "note": "[pregnenolone]", "Binding affinity to human corticosteroid-binding globulins (CBG)": "−5.255"}
{"smiles": "CC(=O)[C@H]1CC[C@H]2[C@@H]3CCC4=CC(=O)CC[C@]4(C)[C@H]3CC[C@]12C", "note": "[progesterone]", "Binding affinity to human corticosteroid-binding globulins (CBG)": "−7.380"}
{"smiles": "C[C@]12CC[C@H]3[C@@H](CCC4=CC(=O)CC[C@@]43C)[C@@H]1CC[C@@H]2O", "note": "[teststerone]", "Binding affinity to human corticosteroid-binding globulins (CBG)": "−6.724"}
